In ChEMBL document CHEMBL1153358, “Amide analogs of antifungal dioxane-triazole derivatives: synthesis and in vitro activities” (Bioorg Med Chem Lett, 2009):
≈ marks a conversion by molar mass, not a printed value.

What was measured:
Cryptococcus neoformans = test: Antifungal activity against Cryptococcus neoformans TIMM 1855; format: functional
Candida albicans [1] = test: Antifungal activity against Candida albicans SANK 51486; format: functional
Nakaseomyces glabratus = test: Antifungal activity against Candida glabrata ATCC 90030; format: functional
Aspergillus flavus = test: Antifungal activity against Aspergillus flavus SANK 18497; format: functional
Candida albicans [2] = test: Antifungal activity against fluconazole-resistant Candida albicans TIMM3164; format: functional
Candida tropicalis = test: Antifungal activity against Candida tropicalis ATCC 750; format: functional
Aspergillus fumigatus [3] = test: Antifungal activity against Aspergillus fumigatus SANK 10569; format: functional
[4] = Bioavailability in rat at 20 mg/kg, po; format: ADME, organism-based; conditions: in vivo
Candida albicans [5] = test: Antifungal activity against Candida albicans ATCC 24433; format: functional
Aspergillus fumigatus [6] = test: Antifungal activity against Aspergillus fumigatus ATCC 26430; format: functional
Candida parapsilosis = test: Antifungal activity against Candida parapsilosis ATCC 90018; format: functional; conditions: Lodderomyces parapsilosis
Pichia kudriavzevii = test: Antifungal activity against Candida krusei ATCC 6258; format: functional
Candida albicans [7] = test: Antifungal activity against Candida albicans ATCC 64550; format: functional
[8] = Chemical stability assessed as half life in HCl; format: physicochemical

SMILES	MIC (Cryptococcus neoformans) [µg/mL]	MIC (Candida albicans [1]) [µg/mL]	MIC (Nakaseomyces glabratus) [µg/mL]	MIC (Aspergillus flavus) [µg/mL]	MIC (Candida albicans [2]) [µg/mL]	MIC (Candida tropicalis) [µg/mL]	MIC (Aspergillus fumigatus [3]) [µg/mL]	bioavailability [4] [%]	MIC (Candida albicans [5]) [µg/mL]	MIC (Aspergillus fumigatus [6]) [µg/mL]	MIC (Candida parapsilosis) [µg/mL]	MIC (Pichia kudriavzevii) [µg/mL]	MIC (Candida albicans [7]) [µg/mL]	half-life [8] [h]
C[C@@H](S[C@H]1CO[C@H](c2ccc(C(=O)Nc3ccc(Cl)cc3)cc2)OC1)[C@](O)(Cn1cncn1)c1ccc(F)cc1F	0.016 (≈ 0.0266 µM)	≤ 0.008	> 4	0.125 (≈ 0.208 µM)	≤ 0.008	0.016 (≈ 0.0266 µM)	0.063 (≈ 0.105 µM)	–	–	–	–	–	–	–
C[C@@H](S[C@H]1CO[C@H](/C=C/C(=O)c2ccc(F)cc2)OC1)[C@](O)(Cn1cncn1)c1ccc(F)cc1F.O=C(O)/C=C\C(=O)O	0.125	≤ 0.008	1	> 4	0.125	0.5	1	–	–	–	–	–	–	–
C[C@@H](S[C@H]1CO[C@H](c2ccc(C(=O)Nc3ccc(O)cc3)cc2)OC1)[C@](O)(Cn1cncn1)c1ccc(F)cc1F	0.25 (≈ 0.429 µM)	0.016 (≈ 0.0275 µM)	> 4	1 (≈ 1.72 µM)	0.063 (≈ 0.108 µM)	0.25 (≈ 0.429 µM)	0.5 (≈ 0.858 µM)	–	–	–	–	–	–	–
C[C@@H](S[C@H]1CO[C@H](c2ccc(C(=O)Nc3ccc(C#N)c(Cl)c3)cc2)OC1)[C@](O)(Cn1cncn1)c1ccc(F)cc1F	0.031 (≈ 0.0495 µM)	≤ 0.008	1 (≈ 1.6 µM)	0.25 (≈ 0.399 µM)	0.016 (≈ 0.0256 µM)	0.063 (≈ 0.101 µM)	0.125 (≈ 0.2 µM)	–	–	–	–	–	–	–
C[C@@H](S[C@H]1CO[C@H](c2ccc(C(=O)Nc3ccc(C#N)c(C#N)c3)cc2)OC1)[C@](O)(Cn1cncn1)c1ccc(F)cc1F	0.063 (≈ 0.102 µM)	≤ 0.008	> 4	0.5 (≈ 0.811 µM)	0.016 (≈ 0.0259 µM)	0.031 (≈ 0.0503 µM)	0.25 (≈ 0.405 µM)	–	–	–	–	–	–	–
C[C@@H](S[C@H]1CO[C@H](c2ccc(C(=O)Nc3ccc(C#N)cc3)cc2F)OC1)[C@](O)(Cn1cncn1)c1ccc(F)cc1F	0.031 (≈ 0.0509 µM)	≤ 0.008	2 (≈ 3.28 µM)	0.25 (≈ 0.41 µM)	0.031 (≈ 0.0509 µM)	≤ 0.008	0.063 (≈ 0.103 µM)	–	–	–	–	–	–	–
CC(=O)c1ccc(NC(=O)c2ccc([C@H]3OC[C@H](S[C@H](C)[C@](O)(Cn4cncn4)c4ccc(F)cc4F)CO3)cc2)cc1	0.125 (≈ 0.205 µM)	≤ 0.008	> 4	0.25 (≈ 0.411 µM)	0.031 (≈ 0.0509 µM)	0.125 (≈ 0.205 µM)	0.063 (≈ 0.104 µM)	–	–	–	–	–	–	–
C[C@@H](S[C@H]1CO[C@H](c2ccc(C(=O)Nc3ccc(Br)cc3)cc2)OC1)[C@](O)(Cn1cncn1)c1ccc(F)cc1F	0.016 (≈ 0.0248 µM)	≤ 0.008	> 4	0.125 (≈ 0.194 µM)	0.016 (≈ 0.0248 µM)	≤ 0.008	0.063 (≈ 0.0976 µM)	–	–	–	–	–	–	–
C[C@@H](S[C@H]1CO[C@H](c2ccc(C(=O)Nc3ccc(OCC(F)(F)C(F)F)cc3)cc2)OC1)[C@](O)(Cn1cncn1)c1ccc(F)cc1F	0.063 (≈ 0.0904 µM)	0.016 (≈ 0.023 µM)	> 4	0.5 (≈ 0.718 µM)	0.031 (≈ 0.0445 µM)	0.125 (≈ 0.179 µM)	0.125 (≈ 0.179 µM)	–	–	–	–	–	–	–
Cc1ccc(NC(=O)c2ccc([C@H]3OC[C@H](S[C@H](C)[C@](O)(Cn4cncn4)c4ccc(F)cc4F)CO3)cc2)cc1	0.031 (≈ 0.0534 µM)	≤ 0.008	2 (≈ 3.44 µM)	0.25 (≈ 0.431 µM)	0.016 (≈ 0.0276 µM)	≤ 0.008	0.063 (≈ 0.108 µM)	–	–	–	–	–	–	–
C[C@@H](S[C@H]1CO[C@H](c2ccc(C(=O)Nc3ccc(C#N)cc3)cc2)OC1)[C@](O)(Cn1cncn1)c1ccc(F)cc1F	0.031 (≈ 0.0524 µM)	≤ 0.008	2 (≈ 3.38 µM)	0.125 (≈ 0.211 µM)	≤ 0.008	0.016 (≈ 0.027 µM)	0.031 (≈ 0.0524 µM)	31.7	≤ 0.008	0.031 (≈ 0.0524 µM)	≤ 0.008	0.063 (≈ 0.106 µM)	0.25 (≈ 0.423 µM)	2.67
C[C@@H](S[C@H]1CO[C@H](c2ccc(C(=O)Nc3ccc(F)cc3)cc2)OC1)[C@](O)(Cn1cncn1)c1ccc(F)cc1F	0.031 (≈ 0.053 µM)	≤ 0.008	2 (≈ 3.42 µM)	0.25 (≈ 0.428 µM)	0.016 (≈ 0.0274 µM)	0.016 (≈ 0.0274 µM)	0.125 (≈ 0.214 µM)	–	–	–	–	–	–	–
C[C@@H](S[C@H]1CO[C@H](c2ccc(C(=O)N3CCN(c4ccccc4)CC3)cc2)OC1)[C@](O)(Cn1cncn1)c1ccc(F)cc1F	0.016 (≈ 0.0252 µM)	0.016 (≈ 0.0252 µM)	2 (≈ 3.15 µM)	2 (≈ 3.15 µM)	0.125 (≈ 0.197 µM)	0.5 (≈ 0.786 µM)	1 (≈ 1.57 µM)	–	–	–	–	–	–	–
